Structures can show the parent of a compound that is named as a salt. Where two headings read alike, the source gives them in different places. Where only a bound is given, the exact number is not on record here.

One may read the viability as a read-out of living cells in per cent, often relative to untreated cells. One may read the IC50 as the midpoint of a concentration-inhibition curve. For orientation: inhibition means the change of the read-out against control, counted positive when it falls.

A short description of data set [1]: hPBMC proliferation assay. The class given is cell-based. Particulars: human, human peripheral blood mononuclear cells (hPBMC), read-out: % cell viability. The source says: Higher lipophilicity and masking of the –COOH in 1 could possibly be responsible for this observation since usually acids are prevented from entering in the CNS.[35] […] The possibility of the title compounds behaving as prodrugs could be minute due to the difficulty in hydrolysing the amide linkage inside cells and release of the active form “MPA”.

The test system of data set [2] is MDA-MB-231 (breast adenocarcinoma). The experiment in a line: Cell viability (MTT assay), MDA-MB-231. Format: cell-based. The settings on record: for IC50: MTT, 48-h incubation, triplicate, read-out: Cytotoxicity IC50 (μM) ± SD, MDA-MB-231. How it is done:
(§1) Cancer cell lines such as MDA-MB-231 (breast adenocarcinoma), DU145 (prostate carcinoma) and U87 MG (glioblastoma astrocytoma) were purchased from National Centre for Cell Sciences (NCCS) (Pune, India). Cytotoxic activity of compounds (>80% hIMPDH2 inhibition at 10 μM) was evaluated using colorimetric MTT assay on the above-mentioned cell lines. Briefly, cells were grown in DMEM media supplemented with foetal bovine serum (FBS) 10% and penicillin–streptomycin (50 U/ml, 50 µg/ml) at 37 °C, CO2 (5%) and air (95%). Logarithmically, growing cells were seeded using 96-well plate at different concentrations of the test compounds ranging from 0.01 to 100 μM (seeding density: MDA-MB-231: 10,000 cells/well, DU145: 8000 cells/well, U87 MG: 5000 cells/well). […] Each dilution of test compound was added in triplicate. Following 48-h incubation with the compounds, cells were incubated with MTT reagent (5 mg/ml) for 4 h, and then 100 μl of DMSO was added to dissolve formazan crystals. The absorbance was then measured at 540 nm and 630 nm (background scan) using EPOCH 2 BioTek microplate reader. The IC50 values for the tested compounds were calculated and expressed in μM using mean of triplicate readings.
For orientation: Tetrazolium assays rely on reduction of a dye to a coloured formazan, in cell work by metabolically active cells.

For a further data set, the target named is T1, hIMPDH2 (Homo sapiens, UniProt P12268).
T1 construct: purchased NovoCIB SAS (Lyon, France)
Nature of the data set: In vitro hIMPDH2 inhibition assay. The class given is biochemical. Particulars: for inhibition at 10 µM / hIMPDH2 enzyme % Inhibition: ± SD, at 10 µM; for inhibition at 10 µM: read-out: hIMPDH2 enzyme % Inhibition; for IC50: triplicate, determined when inhibition >70% at 10 µM, read-out: hIMPDH2 enzyme IC50 (µM) ± SD. How it is done:
The enzyme (hIMPDH2) was purchased from NovoCIB SAS (Lyon, France). […] The assay was performed in a 200 µl final volume in 96-well UV plates (Tarsons, 980040, Tarsons Products Pvt. Ltd., Kolkata, India) with a reaction buffer composed of 100 mM Tris–HCl (pH 8.6), 100 mM KCl and 5 mM DTT, 4% v/v DMSO plus or minus test compound and 0.15 mU of purified hIMPDH2 enzyme per well (from 1.5 mg/ml stock solution). […] The reaction was initiated by the addition of (substrate buffer) 0.2 mM of IMP and 0.2 mM of NAD^+ and the assay was allowed to proceed at 37 °C for 45 min. The generated NADH was measured by reading the absorbance at 340 nm. […] The MPA (10 µM) was used as a positive control and DMSO as a vehicle control. […] Enzyme inhibition and IC50 values were expressed in % inhibition and μM, respectively.

In data set [3] the test system is DU145 (prostate carcinoma). The experiment in a line: Cell viability (MTT assay), DU145. Format: cell-based. Particulars: for IC50: MTT, 48-h incubation, triplicate, read-out: Cytotoxicity IC50 (μM) ± SD, DU145. How it is done:
as §1

For data set [4], the system named is U87 MG (glioblastoma astrocytoma). Nature of the data set: Cell viability (MTT assay), U87 MG. Format: cell-based. Particulars: for IC50: MTT, 48-h incubation, triplicate, read-out: Cytotoxicity IC50 (μM) ± SD, U87 MG. How it is done: as §1

Consider `COc1c(C)c2c(c(O)c1C/C=C(\C)CCC(=O)O)C(=O)OC2` [Compound 1, Mycophenolic acid, reference compound], for which, in data set [1], the viability worked out at 63%. Further, the IC50 in data set [2] (Homo sapiens, MDA-MB-231) turned out to be 4.38 ± 0.06 µM; in data set [3] (Homo sapiens, DU-145) it was 2.94 ± 0.09 µM; in data set [4] (Homo sapiens, U-87 MG), 10.7 ± 0.21 µM. For the same molecule, the inhibition at 10 µM at hIMPDH2 came to 99.9 ± 1.2%.

Turning to `COc1c(C)c2c(c(O)c1C/C=C(\C)CCC(=O)N[C@@H](C)c1ccccc1)C(=O)OC2` [Compound 14, (S)(E)-6–(4-hydroxy-6-methoxy-7-methyl-3-oxo-1,3-dihydroisobenzofuran-5-yl)-4-methyl-N-(1-phenylethyl)hex-4-enamide], on hIMPDH2, the inhibition at 10 µM is 59.1 ± 1.91%.

For the molecule `COc1c(C)c2c(c(O)c1C/C=C(\C)CCC(=O)N[C@H](C)c1ccccc1)C(=O)OC2` [Compound 15], on hIMPDH2, the “hIMPDH2 enzyme % Inhibition” value is reported as 73.94 ± 2.84%, the inhibition at 10 µM is > 70% and the IC50 worked out at 0.82 ± 0.32 µM.

For the molecule `COc1c(C)c2c(c(O)c1C/C=C(\C)CCC(=O)NCc1ccccc1Cl)C(=O)OC2` [Compound 16], at hIMPDH2, the “hIMPDH2 enzyme % Inhibition” value is listed as 72.04 ± 1.11%, the inhibition at 10 µM is > 70% and the IC50 stood at 0.73 ± 0.06 µM.

Take `COc1c(C)c2c(c(O)c1C/C=C(\C)CCC(=O)NCc1ccco1)C(=O)OC2` [Compound 17]: the “hIMPDH2 enzyme % Inhibition” value on hIMPDH2 was 67.18 ± 4.16%.

Take `COc1ccc(CNC(=O)CC/C(C)=C/Cc2c(O)c3c(c(C)c2OC)COC3=O)cc1` [Compound 18]: the IC50 in data set [2] (Homo sapiens, MDA-MB-231) turned out to be 2.42 ± 0.11 µM; at hIMPDH2, 0.33 ± 0.11 µM; in data set [3] (Homo sapiens, DU-145), 1.8 ± 0.07 µM; in data set [4] (Homo sapiens, U-87 MG), 5.26 ± 0.18 µM. For the same molecule, on hIMPDH2, the inhibition at 10 µM was 96.1 ± 2.51%.

With `COc1c(C)c2c(c(O)c1C/C=C(\C)CCC(=O)NCc1ccc(C)cc1)C(=O)OC2` [Compound 19], on hIMPDH2, the inhibition at 10 µM stood at 73.4 ± 3.62% and the IC50 is 0.6 ± 0.13 µM.

For the molecule `COc1c(C)c2c(c(O)c1C/C=C(\C)CCC(=O)NCc1ccc(Cl)cc1)C(=O)OC2` [Compound 20], the IC50 in data set [2] stood at 4.1 ± 0.23 µM; on hIMPDH2, 0.57 ± 0.11 µM; in data set [3], 2.69 ± 0.11 µM; in data set [4], 7.31 ± 0.17 µM. For the same molecule, the “hIMPDH2 enzyme % Inhibition” value at hIMPDH2 is 81.36 ± 1.95%.

As to `COc1c(C)c2c(c(O)c1C/C=C(\C)CCC(=O)NCc1ccncc1)C(=O)OC2` [Compound 21], the inhibition at 10 µM at hIMPDH2 amounted to 57.4 ± 1.02%.

With `COc1c(C)c2c(c(O)c1C/C=C(\C)CCC(=O)NCc1ccccn1)C(=O)OC2` [Compound 22], the inhibition at 10 µM at hIMPDH2 is 59.4 ± 1.81%.

Regarding `COc1c(C)c2c(c(O)c1C/C=C(\C)CCC(=O)NCc1ccccc1C)C(=O)OC2` [Compound 23], the IC50 in data set [2] (Homo sapiens, MDA-MB-231) stood at 0.77 ± 0.04 µM; on hIMPDH2 it was 0.5 ± 0.18 µM; in data set [3] (Homo sapiens, DU-145), 1.28 ± 0.04 µM; in data set [4] (Homo sapiens, U-87 MG), 4.66 ± 0.07 µM. In addition, the “potency relative to MPA, MDA-MB-231” value in data set [2] (fold vs MPA) is on record as “five-fold more potent than MPA”. Moreover, the inhibition at 10 µM at hIMPDH2 was determined as 84 ± 2.13%.

As for `COc1c(C)c2c(c(O)c1C/C=C(\C)CCC(=O)NCCCCc1ccccc1)C(=O)OC2` [Compound 24], the viability in data set [1] stood at 65%. The IC50 in data set [2] (Homo sapiens, MDA-MB-231) is 1.46 ± 0.07 µM; at hIMPDH2, 0.48 ± 0.02 µM; in data set [3] (Homo sapiens, DU-145), 1.09 ± 0.02 µM; in data set [4] (Homo sapiens, U-87 MG) it was 3.35 ± 0.09 µM. In addition, at hIMPDH2, the “hIMPDH2 enzyme % Inhibition” value is on record as 93.62 ± 3.17%. The “potency relative to MPA, DU145” value in data set [3] (fold vs MPA) was “three-fold higher potency than MPA”. Further, the “potency relative to MPA, U87 MG” value in data set [4] (fold vs MPA) is on record as “three-fold more active than MPA”.

As to `COc1c(C)c2c(c(O)c1C/C=C(\C)CCC(=O)NCc1ccc3c(c1)OCO3)C(=O)OC2` [Compound 25], the IC50 in data set [2] came to 1.86 ± 0.16 µM; at hIMPDH2, 0.51 ± 0.08 µM; in data set [3], 2.53 ± 0.15 µM; in data set [4], 8.16 ± 0.27 µM. On hIMPDH2, the “hIMPDH2 enzyme % Inhibition” value came to 87.09 ± 4.54%.

With `COc1c(C)c2c(c(O)c1C/C=C(\C)CCC(=O)NCCN1CCOCC1)C(=O)OC2` [Compound 26], the inhibition at 10 µM on hIMPDH2 is 36 ± 3.86%.

On to `COc1cccc(NC(=O)CC/C(C)=C/Cc2c(O)c3c(c(C)c2OC)COC3=O)c1` [Compound 27, (E)-6–(4-hydroxy-6-methoxy-7-methyl-3-oxo-1,3-dihydroisobenzofuran-5-yl)-N-(3-methoxyphenyl)-4-methylhex-4-enamide], for which the inhibition at 10 µM at hIMPDH2 was found to be 30.8 ± 2.82%.

For the molecule `COc1ccc(NC(=O)CC/C(C)=C/Cc2c(O)c3c(c(C)c2OC)COC3=O)cc1` [Compound 28], the “hIMPDH2 enzyme % Inhibition” value at hIMPDH2 was 54.84 ± 1.15%.

In the case of `COc1cccc2c1C(=O)c1c(O)c3c(c(O)c1C2=O)C[C@@](O)(C(=O)CO)C[C@@H]3O[C@H]1C[C@H](N)[C@H](O)[C@H](C)O1` [Doxorubicin HCl, reference compound], the IC50 in data set [2] (Homo sapiens, MDA-MB-231) was found to be 0.54 ± 0.08 µM; in data set [3] (Homo sapiens, DU-145), 0.21 ± 0.06 µM; in data set [4] (Homo sapiens, U-87 MG), 0.11 ± 0.02 µM.

Source of the values: article PMC6009919, “Newer human inosine 5′-monophosphate dehydrogenase 2 (hIMPDH2) inhibitors as potential anticancer agents” (Journal of Enzyme Inhibition and Medicinal Chemistry, 2018).
